# Reference: US20110293676A1, “Oral Cephalotaxine Dosage Forms” (ChemGenex Pharmaceuticals, Inc., priority 2007, published 2011)
# Experiments:
# [1] = Pharmacokinetic study of homoharringtonine in mice, oral vs subcutaneous, plasma HHT content; assay type: in vivo, male CD-1 mice; set-up: Tmax / t-½: unit not given here; conditions: for Concentration of HHT in mouse sodium heparin plasma: single dose; for BA po/sc % / Cmax / Tmax / AUC / t-½: mouse; for AUC / t-½: WINNONLIN NCA model
# Procedure: To evaluate the potential for the development of an oral formulation of homoharringtonine, a pharmacokinetic study was performed in mice. Homoharringtonine was given, at 2 doses, by either oral or subcutaneous routes to male CD-1 mice. After a single administration, blood was collected from the tail vein and analyzed for homoharringtonine content. The animal dosing was performed by Murigenics (Berkeley, Calif.) and the analysis of sera was performed by PHARMout (Sunnyvale, Calif.). […] This bioavailability is considered very good.
# Homoharringtonine was manufactured by Stragen for ChemGenex Pharmaceuticals. 5 mg of lyophilized homoharringtonine was provided in a glass vial and was stable at room temperature. The vehicle was 0.9% sodium chloride supplied with the test agent in a separate vial. 27 male CD-1 mice, 8-10 weeks old (Charles River Laboratories) were used for this study. 24 mice were used for dosing, and 3 mice were used as naïve controls.
# On the day of the study, 5 ml of saline were added to the 5 mg vial to make a stock of 1 mg/ml HHT. The amount administered for each mouse was based on weight, using a dose volume of 4 ml/kg. The dosing administration was performed according to Table 1.
# Test subjects were dosed once. The enzyme blocker was provided in two separate tubes (A & B) Immediately prior to blood collection, 20 μL each of A and B were aliquoted into a small tube (to yield 40 μL of enzyme inhibitor).
# Blood from 3 naïve mice was collected for a 0 timepoint. Approximately 50 μL of whole blood per animal (n=3 mice per time point) was collected into heparinized capillary tubes. Heparanized blood was transferred into tubes containing 40 μL of enzyme inhibitor. Samples were clearly marked by PK timepoint and group. Blood was stored on ice until centrifugation. There were 6 mice treated at each dose, but blood was pooled from 3 mice per time point so that each mouse had blood collected at every other timepoint. There were the following timepoints: 0, 15 min, 30 min, 2 hr, 4 hr and 8 hr after the administration of homoharringtonine. There were three samples collected for the T=0 from naïve mice. There were 5 samples collected for each dose, corresponding to the timepoints, 15 min, 30 min, 2 hr, 4 hr and 8 hr after the administration of homoharrigntonine. There were 2 doses for each route, and 2 routes of administration, so there were a total of 20 samples collected from treated mice. Plasma tubes were spun to prepare plasma, frozen to −80° C. and shipped on dry ice to PHARMout for bioanalytical work up.
# The Cmax of the oral doses was 4 and 30 ng/mL for the 410 and 1600 μg/kg oral doses, respectively.
# [2] = Observation for mortality, morbidity and adverse events in the mouse pharmacokinetic study; assay type: in vivo, male CD-1 mice; conditions: single dose 0.41 or 1.6 mg/kg p.o. or s.c., observed until 7 days after last blood collection
# Procedure: Animals were observed twice daily (in the morning and in the evening) for mortality and morbidity beginning at the time of arrival from the vendor until the scheduled sacrifice 7 days after the last blood collection. Prior to dosing, each animal was removed from its cage and observed for signs of poor health and abnormal behavior. All animals were weighed prior to dosing.
# No unscheduled sacrifices or deaths were recorded. Animals were sacrificed via CO2 7 days after the completion of blood draws.
smiles,measurement,setting,value
"COC(=O)C[C@](O)(CCCC(C)(C)O)C(=O)O[C@@H]1C(OC)=C[C@]23CCCN2CCc2cc4c(cc2[C@H]13)OCO4 [HHT, cephalotaxine, 4-methyl-2-hydroxy-2-(4-hydroxy-4-methylpentyl) butanediocate ester]",Concentration of HHT in mouse sodium heparin plasma,"[1]; Group 1: 0.41 mg/kg p.o., 15 min",3.54 ng/mL
same,Concentration of HHT in mouse sodium heparin plasma,"[1]; Group 1: 0.41 mg/kg p.o., 30 min",3.59 ng/mL
same,Concentration of HHT in mouse sodium heparin plasma,"[1]; Group 1: 0.41 mg/kg p.o., 60 min",3.85 ng/mL
same,Concentration of HHT in mouse sodium heparin plasma,"[1]; Group 1: 0.41 mg/kg p.o., 120 min",4.29 ng/mL
same,Concentration of HHT in mouse sodium heparin plasma,"[1]; Group 1: 0.41 mg/kg p.o., 240 min",1.81 ng/mL
same,Concentration of HHT in mouse sodium heparin plasma,"[1]; Group 1: 0.41 mg/kg p.o., 480 min",1.65 ng/mL
same,Concentration of HHT in mouse sodium heparin plasma,"[1]; Group 2: 0.41 mg/kg s.c., 15 min",20.4 ng/mL
same,Concentration of HHT in mouse sodium heparin plasma,"[1]; Group 2: 0.41 mg/kg s.c., 30 min",11.2 ng/mL
same,Concentration of HHT in mouse sodium heparin plasma,"[1]; Group 2: 0.41 mg/kg s.c., 60 min",6.20 ng/mL
same,Concentration of HHT in mouse sodium heparin plasma,"[1]; Group 2: 0.41 mg/kg s.c., 120 min",3.59 ng/mL
same,Concentration of HHT in mouse sodium heparin plasma,"[1]; Group 2: 0.41 mg/kg s.c., 240 min",2.44 ng/mL
same,Concentration of HHT in mouse sodium heparin plasma,"[1]; Group 2: 0.41 mg/kg s.c., 480 min",BQL (Below the quantification limit (1.00 ng/mL))
same,Concentration of HHT in mouse sodium heparin plasma,"[1]; Group 3: 1.6 mg/kg p.o., 15 min",6.58 ng/mL
same,Concentration of HHT in mouse sodium heparin plasma,"[1]; Group 3: 1.6 mg/kg p.o., 30 min",8.87 ng/mL
same,Concentration of HHT in mouse sodium heparin plasma,"[1]; Group 3: 1.6 mg/kg p.o., 60 min",29.9 ng/mL
same,Concentration of HHT in mouse sodium heparin plasma,"[1]; Group 3: 1.6 mg/kg p.o., 120 min",9.18 ng/mL
same,Concentration of HHT in mouse sodium heparin plasma,"[1]; Group 3: 1.6 mg/kg p.o., 240 min",5.52 ng/mL
same,Concentration of HHT in mouse sodium heparin plasma,"[1]; Group 3: 1.6 mg/kg p.o., 480 min",4.19 ng/mL
same,Concentration of HHT in mouse sodium heparin plasma,"[1]; Group 4: 1.6 mg/kg s.c., 15 min",54.4 ng/mL
same,Concentration of HHT in mouse sodium heparin plasma,"[1]; Group 4: 1.6 mg/kg s.c., 30 min",15.4 ng/mL
same,Concentration of HHT in mouse sodium heparin plasma,"[1]; Group 4: 1.6 mg/kg s.c., 60 min",35.3 ng/mL
same,Concentration of HHT in mouse sodium heparin plasma,"[1]; Group 4: 1.6 mg/kg s.c., 120 min",6.38 ng/mL
same,Concentration of HHT in mouse sodium heparin plasma,"[1]; Group 4: 1.6 mg/kg s.c., 240 min",7.72 ng/mL
same,Concentration of HHT in mouse sodium heparin plasma,"[1]; Group 4: 1.6 mg/kg s.c., 480 min",3.10 ng/mL
same,BA po/sc %,"[1]; 410 ug/kg, oral compared with subcutaneous dosing",76%
same,BA po/sc %,"[1]; 1600 ug/kg, oral based on the subcutaneous dose",77%
same,Cmax,"[1]; po, 410 ug/kg (1.2 mg/m2)",4 ng/mL
same,Tmax,"[1]; po, 410 ug/kg (1.2 mg/m2)",120
same,AUC,"[1]; po, 410 ug/kg (1.2 mg/m2)",1217 ng·min/mL
same,t-½,"[1]; po, 410 ug/kg (1.2 mg/m2)",297
same,Cmax,"[1]; po, 1600 ug/kg (4.8 mg/m2)",30 ng/mL
same,Tmax,"[1]; po, 1600 ug/kg (4.8 mg/m2)",60
same,AUC,"[1]; po, 1600 ug/kg (4.8 mg/m2)",3966 ng·min/mL
same,t-½,"[1]; po, 1600 ug/kg (4.8 mg/m2)",341
same,Cmax,"[1]; sc, 410 ug/kg (1.2 mg/m2)",20 ng/mL
same,Tmax,"[1]; sc, 410 ug/kg (1.2 mg/m2)",15
same,AUC,"[1]; sc, 410 ug/kg (1.2 mg/m2)",1599 ng·min/mL
same,t-½,"[1]; sc, 410 ug/kg (1.2 mg/m2)",215
same,Cmax,"[1]; sc, 1600 ug/kg (4.8 mg/m2)",54 ng/mL
same,Tmax,"[1]; sc, 1600 ug/kg (4.8 mg/m2)",15
same,AUC,"[1]; sc, 1600 ug/kg (4.8 mg/m2)",5087 ng·min/mL
same,t-½,"[1]; sc, 1600 ug/kg (4.8 mg/m2)",306
same,mortality and morbidity,[2],No mortalities or signs of morbidity were observed
